According to the supplement of paper PMC10307832:

Columns and labels:
Assay in all cases: relative viability (nuclei count vs DMSO), 5 days (fraction); higher = more cells survive
[1] = compound: COc1cc(Nc2ncc3c(n2)-c2ccc(Cl)cc2C(c2c(F)cccc2OC)=NC3)ccc1C(=O)O [Alisertib] + CCNC(=O)c1noc(-c2cc(C(C)C)c(O)cc2O)c1-c1ccc(CN2CCOCC2)cc1 [Luminespib] (partner 0.01 µM)
Summary of the method: (§1)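 Each reported value is a median over duplicate plates. It expresses relative viability: treated-well nuclei count divided by vehicle-well nuclei count. Lung cancer cell lines in 1536-well plates were dosed by pin tool a day after seeding, alone with one drug or with a fixed anchor-drug dose plus five library-drug doses (not always all listed) in √10 steps, and nuclei were counted after 5 days.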

[2] = compound: COc1cc(Nc2ncc3c(n2)-c2ccc(Cl)cc2C(c2c(F)cccc2OC)=NC3)ccc1C(=O)O [Alisertib] + CC(C)C[C@H](NC(=O)[C@H](Cc1ccccc1)NC(=O)c1cnccn1)B(O)O [Bortezomib] (partner 0.002 µM)
Summary of the method: as §1

[3] = compound: COc1cc(Nc2ncc3c(n2)-c2ccc(Cl)cc2C(c2c(F)cccc2OC)=NC3)ccc1C(=O)O [Alisertib] + Cc1nc(Nc2ncc(C(=O)Nc3c(C)cccc3Cl)s2)cc(N2CCN(CCO)CC2)n1 [Dasatinib] (partner 0.075 µM)
Summary of the method: as §1

[4] = compound: COc1cc(Nc2ncc3c(n2)-c2ccc(Cl)cc2C(c2c(F)cccc2OC)=NC3)ccc1C(=O)O [Alisertib] + CC(=O)c1c(C)c2cnc(Nc3ccc(N4CCNCC4)cn3)nc2n(C2CCCC2)c1=O [Palbociclib] (partner 0.5 µM)
Summary of the method: as §1

| Cell Line | relative viability ([1]; first compound 0.005 µM) | relative viability ([1]; first compound 0.01581 µM) | relative viability ([1]; first compound 0.05 µM) | relative viability ([1]; first compound 0.1581 µM) | relative viability ([1]; first compound 0.5 µM) | relative viability ([2]; first compound 0.005 µM) | relative viability ([2]; first compound 0.01581 µM) | relative viability ([2]; first compound 0.05 µM) | relative viability ([2]; first compound 0.1581 µM) | relative viability ([2]; first compound 0.5 µM) | relative viability ([3]; first compound 0.005 µM) | relative viability ([3]; first compound 0.01581 µM) | relative viability ([3]; first compound 0.05 µM) | relative viability ([3]; first compound 0.1581 µM) | relative viability ([3]; first compound 0.5 µM) | relative viability ([4]; first compound 0.005 µM) | relative viability ([4]; first compound 0.01581 µM) | relative viability ([4]; first compound 0.05 µM) | relative viability ([4]; first compound 0.1581 µM) | relative viability ([4]; first compound 0.5 µM) |
| --- | --- | --- | --- | --- | --- | --- | --- | --- | --- | --- | --- | --- | --- | --- | --- | --- | --- | --- | --- | --- |
| NCI-H1792 | 0.481 | 0.533 | 0.225 | 0.195 | 0.17 | 0.935 | 0.871 | 0.555 | 0.21 | 0.0867 | 0.727 | 0.732 | 0.413 | 0.252 | 0.162 | 0.697 | 0.522 | 0.423 | 0.343 | 0.169 |
| NCI-H1355 | 0.67 | 0.37 | 0.221 | 0.183 | 0.217 | 1.18 | 1.22 | 0.993 | 0.368 | 0.206 | 0.691 | 0.702 | 0.664 | 0.177 | 0.184 | 0.362 | 0.393 | 0.37 | 0.291 | 0.142 |
| UMC-11 | 0.85 | 0.428 | 0.173 | 0.141 | 0.132 | 0.34 | 0.184 | 0.0876 | 0.107 | 0.122 | 0.32 | 0.184 | 0.157 | 0.144 | 0.127 | 0.331 | 0.289 | 0.248 | 0.223 | 0.275 |
| NCI-H2347 | 0.275 | 0.287 | 0.429 | 0.317 | 0.422 | 0.733 | 1.09 | 0.911 | 0.584 | 0.466 | 0.263 | 0.339 | 0.275 | 0.268 | 0.222 | 0.427 | 0.429 | 0.438 | 0.387 | 0.362 |
| LCLC-97TM1 | 0.787 | 0.601 | 0.318 | 0.177 | 0.12 | 0.51 | 0.725 | 0.108 | 0.0791 | 0.0549 | 0.773 | 0.712 | 0.709 | 0.192 | 0.173 | 0.222 | 0.215 | 0.127 | 0.0905 | 0.0969 |
| EMC-BAC-2 | 1.09 | 0.967 | 0.395 | 0.292 | 0.23 | 0.91 | 0.947 | 0.579 | 0.229 | 0.243 | 0.315 | 0.221 | 0.185 | 0.161 | 0.128 | 0.51 | 0.416 | 0.4 | 0.382 | 0.268 |
| NCI-H1975 | 0.199 | 0.23 | 0.213 | 0.177 | 0.168 | 0.324 | 0.334 | 0.215 | 0.159 | 0.152 | 0.298 | 0.333 | 0.286 | 0.153 | 0.109 | 0.454 | 0.547 | 0.299 | 0.259 | 0.168 |
| BEN | 0.309 | 0.161 | 0.133 | 0.115 | 0.141 | 0.691 | 0.867 | 0.398 | 0.229 | 0.2 | 0.499 | 0.39 | 0.296 | 0.178 | 0.138 | 0.45 | 0.444 | 0.348 | 0.327 | 0.384 |
| NCI-H23 | 0.219 | 0.236 | 0.204 | 0.224 | 0.214 | 0.875 | 0.39 | 0.272 | 0.158 | 0.164 | 0.67 | 0.661 | 0.301 | 0.173 | 0.198 | 0.476 | 0.442 | 0.319 | 0.205 | 0.203 |
| NCI-H520 | 0.237 | 0.202 | 0.197 | 0.209 | 0.193 | 0.463 | 0.377 | 0.199 | 0.173 | 0.186 | 0.218 | 0.199 | 0.148 | 0.177 | 0.159 | 0.196 | 0.232 | 0.214 | 0.177 | 0.155 |
| CAL-12T | 0.412 | 0.205 | 0.1 | 0.169 | 0.188 | 0.768 | 0.489 | 0.296 | 0.221 | 0.201 | 0.275 | 0.158 | 0.0813 | 0.113 | 0.0899 | 0.327 | 0.259 | 0.188 | 0.138 | 0.172 |
| EPLC-272H | 0.275 | 0.166 | 0.122 | 0.112 | 0.134 | 0.794 | 0.856 | 0.79 | 0.135 | 0.13 | 0.304 | 0.365 | 0.382 | 0.0703 | 0.0736 | 0.32 | 0.318 | 0.303 | 0.236 | 0.238 |
| LCLC-103H | 0.949 | 0.883 | 0.278 | 0.311 | 0.269 | 1.19 | 1.01 | 1.09 | 0.262 | 0.3 | 0.455 | 0.509 | 0.423 | 0.26 | 0.158 | 0.44 | 0.485 | 0.385 | 0.335 | 0.4 |
| NCI-H2405 | 0.735 | 0.619 | 0.745 | 0.356 | 0.285 | 0.932 | 0.929 | 0.95 | 0.494 | 0.298 | 0.196 | 0.202 | 0.189 | 0.152 | 0.132 | 0.497 | 0.504 | 0.495 | 0.317 | 0.257 |
| HCC-15 | 0.327 | 0.371 | 0.167 | 0.108 | 0.128 | 0.941 | 0.901 | 0.48 | 0.164 | 0.118 | 0.45 | 0.332 | 0.232 | 0.104 | 0.102 | 0.661 | 0.465 | 0.296 | 0.213 | 0.146 |
| RERF-LC-KJ | 1.24 | 0.81 | 0.342 | 0.248 | 0.312 | 0.945 | 1.05 | 0.879 | 0.293 | 0.304 | 0.73 | 0.672 | 0.366 | 0.187 | 0.17 | 1.07 | 0.834 | 0.601 | 0.275 | 0.246 |
